Laboratory results from PubChem BioAssay (NCI).
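Method: 48-hour compound exposure of cells in 96-well plates, five concentrations, linear interpolation of endpoints. GI50 = concentration required for 50% inhibition of growth. TGI: concentration producing complete growth inhibition.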

How the values were obtained:
Test in all cases: NCI anticancer screen, dose series, 48 h
SK-MEL-28 melanoma = tested on: SK-MEL-28 melanoma
SW-620 colon = tested on: SW-620 colon
HCT-15 colon = tested on: HCT-15 colon
SK-OV-3 ovarian = tested on: SK-OV-3 ovarian
NCI-H460 lung = tested on: NCI-H460 lung
A498 renal = tested on: A498 renal
DU-145 prostate = tested on: DU-145 prostate
BT-549 breast = tested on: BT-549 breast
MDA-N = tested on: MDA-N
MDA-MB-435 = tested on: MDA-MB-435

| Structure (SMILES) | TGI (SK-MEL-28 melanoma) | TGI (SW-620 colon) | TGI (HCT-15 colon) | TGI (SK-OV-3 ovarian) | TGI (NCI-H460 lung) | TGI (A498 renal) | TGI (DU-145 prostate) | TGI (BT-549 breast) | TGI (MDA-N) | TGI (MDA-MB-435) | GI50 (DU-145 prostate) | GI50 (SK-OV-3 ovarian) | GI50 (BT-549 breast) | GI50 (A498 renal) | GI50 (MDA-MB-435) | GI50 (SK-MEL-28 melanoma) | GI50 (SW-620 colon) | GI50 (HCT-15 colon) | GI50 (NCI-H460 lung) |
| --- | --- | --- | --- | --- | --- | --- | --- | --- | --- | --- | --- | --- | --- | --- | --- | --- | --- | --- | --- |
| CCOC(=O)CNC(=O)c1[nH]cnc1/N=N/N(C)C | > 100 µM | > 100 µM | > 100 µM | > 100 µM | > 100 µM | > 100 µM |  |  |  |  |  |  |  |  |  |  |  |  |  |
| CC(=O)O[C@H]1CC[C@@H](OC(C)=O)[C@H]2[C@H](O)[C@H](O)[C@@H]1n1c(=O)n(-c3ccccc3)c(=O)n12 | > 100 µM | > 100 µM | > 100 µM |  |  | > 100 µM | > 100 µM | > 100 µM | > 100 µM | > 100 µM |  |  |  |  |  |  |  |  |  |
| Cc1ccc(S(=O)(=O)OCCN(CCOS(=O)(=O)c2ccc(C)cc2)c2ccc(C=O)cc2)cc1 | 81.3 µM | > 100 µM | > 100 µM |  | 48.6 µM | 61 µM | 69.9 µM | > 100 µM |  | 44.4 µM |  |  |  |  |  |  |  |  |  |
| BrC1(c2ccccc2)C[n+]2c(-c3ccccc3)cc(-c3ccccc3)cc2-c2ccccc21 (stereo not given) | 21.2 µM | 11.4 µM | 12 µM |  | 6.99 µM | 9.32 µM | 13.2 µM | 1.85 µM | 1.69 µM | 0.538 µM |  |  |  |  |  |  |  |  |  |
| NCCCNc1nc2ccccc2c2c(=O)c3cc(Cl)ccc3sc12 |  |  |  | 3.48 µM |  | 12.1 µM | 3.27 µM | 46.2 µM |  | 3.18 µM | 1.84 µM | 1.58 µM | 13.5 µM | 3.22 µM | 1.75 µM |  |  |  |  |
| CCCCCCCCCCCCOCC(COP(=O)(O)OCCN=[N+]=[N-])OC(=O)CCCCCCCCCCC (stereo not given) | > 100 µM | > 100 µM | > 100 µM | > 100 µM | > 100 µM | > 100 µM | > 100 µM |  | > 100 µM | > 100 µM |  |  |  |  |  |  |  |  |  |
| NC(=O)CSc1nc2ccccc2c(=O)n1N | > 100 µM | > 100 µM | > 100 µM |  | > 100 µM | > 100 µM | > 100 µM | > 100 µM | > 100 µM | > 100 µM |  |  |  |  |  |  |  |  |  |
| C/C(CCN(C)C)=N/O | 14.8 µM | 6.71 µM | 25.1 µM | 54.1 µM | 58.5 µM | 35.1 µM |  |  |  |  |  |  |  |  |  |  |  |  |  |
| COC(=O)[C@H](C)NC(=O)[C@H](NS(=O)(=O)c1nc2ccccc2s1)c1ccccc1 | 31.9 µM | > 100 µM | > 100 µM | > 100 µM | > 100 µM |  | 41 µM | > 100 µM |  | > 100 µM |  |  |  |  |  |  |  |  |  |
| COc1ccc(/C(C=O)=C(\Cl)c2ccc(OC)c(OC)c2)cc1 |  | > 100 µM | > 100 µM | > 100 µM | > 100 µM | > 100 µM |  |  |  |  |  |  |  |  |  |  |  |  |  |
| COc1cc2c(cc1O)NC(=O)[C@@H]1C[C@@H](O)CN1C2=O | > 100 µM | > 100 µM | > 100 µM | > 100 µM | > 100 µM | > 100 µM | > 100 µM | > 100 µM |  | > 100 µM |  |  |  |  |  |  |  |  |  |
| Cc1cc2nc(N3C(=O)/C(=C/Cc4ccco4)N=C3c3ccccc3)sc2cc1C | > 100 µM | > 100 µM | > 100 µM | > 100 µM | > 100 µM |  | > 100 µM | > 100 µM | 30 µM | 50.5 µM |  |  |  |  |  |  |  |  |  |
| N#Cc1cc(F)cc(Oc2ccc(S(=O)(=O)C(F)F)c3c2CC(F)(F)[C@H]3O)c1 | > 100 µM | > 100 µM | > 100 µM | > 100 µM | > 100 µM | 73.6 µM | > 100 µM | > 100 µM |  | > 100 µM | 36.1 µM | 31.4 µM | 22.3 µM | 20.6 µM | 37.7 µM | 36.1 µM | 55.3 µM | 29.2 µM | 42.1 µM |
| O=C(OCCN=c1c2ccccc2ccc2ccccc12)c1cc([N+](=O)[O-])cc([N+](=O)[O-])c1 | > 100 µM | > 100 µM | > 100 µM | > 100 µM | > 100 µM |  | > 100 µM | > 100 µM | > 100 µM | > 100 µM |  |  |  |  |  |  |  |  |  |
| O=c1c2[nH]cnc2n(-c2ccccc2)c(=S)n1-c1ccccc1 | > 100 µM | > 100 µM | > 100 µM | > 100 µM | > 100 µM | > 100 µM | > 100 µM | > 100 µM |  | > 100 µM |  |  |  |  |  |  |  |  |  |
| NC1CCC2(O)c3ccccc3C2C1 (stereo not given) | > 100 µM | > 100 µM | > 100 µM | > 100 µM | > 100 µM |  |  |  |  |  |  |  |  |  |  |  |  |  |  |
| O=C(/C=C\c1ccccc1)Oc1ccc(/C=C2\CCC/C(=C\c3ccc(OC(=O)/C=C\c4ccccc4)cc3)C2=O)cc1 | > 100 µM | > 100 µM | > 100 µM |  | > 100 µM |  | > 100 µM | > 100 µM | > 100 µM | > 100 µM |  |  |  |  |  |  |  |  |  |
